Reference: patent US10428017B2, “Modulators of the cystic fibrosis transmembrane conductance regulator protein and methods of use” (AbbVie S.à.r.l., priority 2017, dated 2019)
Like-named read-outs stand apart in the source and are kept apart here.

Target: T1, F508delCFTR (Homo sapiens, UniProt P13569, DEL508-508)
T1 construct: expressed in transfected cells; host or cells: CFBE4lo-F508delCFTR-HRP cells (human lung derived epithelial cell line, doxycycline-inducible)
Experiment: Cell Surface Expression-Horse Radish Peroxidase (CSE-HRP) Assay
Type: cell-based
Details: for EC50: CFBE4lo-F508delCFTR-HRP cells, 18-24 hours at 33° C.; for Emax / Maximum % activity (with co-corrector): maximum at any tested concentration (up to 20 μM), normalized to on-plate positive control (2 μM co-corrector); for Maximum % activity (with co-corrector): with co-corrector 2 μM
Method: Cell Surface Expression-Horse Radish Peroxidase (CSE-HRP) Assay
A cellular assay for measuring the F508delCFTR cell surface expression after correction with test compounds either without or with a co-corrector (2 μM of 3-[(2R,4R)-4-({[1-(2,2-difluoro-1,3-benzodioxol-5-yl)cyclopropyl]carbonyl}amino)-7-methoxy-3,4-dihydro-2H-chromen-2-yl]benzoic acid), was developed in human lung derived epithelial cell line (CFBE4lo−) (Veit G et al, (2012) Mol Biol Cell. 23(21): 4188-4202). The development was achieved by expressing the F508delCFTR mutation along with a horseradish peroxidase (HRP) in the fourth exofacial loop, and then measuring the HRP activity using luminescence readout from these cells, CFBE4lo-F508delCFTR-HRP, that were incubated overnight with the test corrector compounds, either without or with the co-corrector. For this primary assay, the CFBE4lo-F508delCFTR-HRP cells were plated in 384-well plates (Greiner Bio-one; Cat 781080) at 4,000 cells/well along with 0.5 μg/mL doxycycline to induce the F508delCFTR-HRP expression and further incubated at 37° C., 5% CO2 for 72 hours. The test compounds were then added either without or with a co-corrector at the required concentrations and further incubated for 18-24 hours at 33° C. The highest concentration tested was 20 μM with an 8-point concentration response curve using a 3-fold dilution in both the test compound without or with the co-corrector. Three replicate plates were run to determine one EC50. All plates contained negative controls (dimethyl sulfoxide, DMSO) and positive control (2 μM of 3-[(2R,4R)-4-({[1-(2,2-difluoro-1,3-benzodioxol-5-yl)cyclopropyl]carbonyl}amino)-7-methoxy-3,4-dihydro-2H-chromen-2-yl]benzoic acid) as well as on-plate concentration response of the positive control. Post incubation, the plates were washed 5× times with Dulbecco's phosphate buffered saline (DPBS), followed by the addition of the HRP substrate, luminol (50 μL), and measuring the HRP activity using luminescence readout on EnVision® Multilabel Plate Reader (Perkin Elmer; product number 2104-0010). The raw counts from the experiment were analyzed using Accelrys® Assay Explorer v3.3.
Z′ greater than 0.5 was used as passing quality control criteria for the plates.
The Z′ is defined as: 1−[3*SDPositive Control+3*SDNegative Control/Absolute(Meanpostivie Control−MeanNegative Control)] wherein “SD” is standard deviation.
The % activity measured at each of the 8 test concentrations of the test compound added either without or with a co-corrector (2 μM of 3-[(2R,4R)-4-({[1-(2,2-difluoro-1,3-benzodioxol-5-yl)cyclopropyl]carbonyl}amino)-7-methoxy-3,4-dihydro-2H-chromen-2-yl]benzoic acid) was normalized to the on-plate positive control using the following formulae: % activity(Test compound without co-corrector)=[(test compound without co-corrector response−DMSO response)/(positive control response−DMSO response)]*100 % activity(Test compound with co-corrector)=[(test compound with co-corrector response−DMSO response)/(positive control response−DMSO response)]*100
The maximum % activity achieved for the test compound either without or with a co-corrector at any tested concentration is presented in Table 1 along with the respective EC50's calculated using the following general sigmoidal curve with variable Hill slope equation (described as Model 42 in the Accelrys® Assay Explorer v3.3 software): y=(a−d)/(1+(x/c)^b)+d
General sigmoidal curve with concentration, response, top, bottom, EC50 and Hill slope. This model describes a sigmoidal curve with an adjustable baseline, a. The equation can be used to fit curves where response is either increasing or decreasing with respect to the independent variable, “x”.
“x” is a concentration of drug under test.
“a” is the maximum response, and “d” is the minimum response
“c” is the inflection point (EC50) for the curve. That is, “y” is halfway between the lower and upper asymptotes when x=c.
“b” is the slope-factor or Hill coefficient. […]

[1] = test compound without co-corrector, HRP luminescence readout, read-out: EC50 (without co-corrector)
[2] = test compound without co-corrector
[3] = with co-corrector 2 μM 3-[(2R,4R)-4-({[1-(2,2-difluoro-1,3-benzodioxol-5-yl)cyclopropyl]carbonyl}amino)-7-methoxy-3,4-dihydro-2H-chromen-2-yl]benzoic acid, read-out: EC50 (with co-corrector)

T1 sequence (P13569 with tags, fused parts or gaps DEL508-508): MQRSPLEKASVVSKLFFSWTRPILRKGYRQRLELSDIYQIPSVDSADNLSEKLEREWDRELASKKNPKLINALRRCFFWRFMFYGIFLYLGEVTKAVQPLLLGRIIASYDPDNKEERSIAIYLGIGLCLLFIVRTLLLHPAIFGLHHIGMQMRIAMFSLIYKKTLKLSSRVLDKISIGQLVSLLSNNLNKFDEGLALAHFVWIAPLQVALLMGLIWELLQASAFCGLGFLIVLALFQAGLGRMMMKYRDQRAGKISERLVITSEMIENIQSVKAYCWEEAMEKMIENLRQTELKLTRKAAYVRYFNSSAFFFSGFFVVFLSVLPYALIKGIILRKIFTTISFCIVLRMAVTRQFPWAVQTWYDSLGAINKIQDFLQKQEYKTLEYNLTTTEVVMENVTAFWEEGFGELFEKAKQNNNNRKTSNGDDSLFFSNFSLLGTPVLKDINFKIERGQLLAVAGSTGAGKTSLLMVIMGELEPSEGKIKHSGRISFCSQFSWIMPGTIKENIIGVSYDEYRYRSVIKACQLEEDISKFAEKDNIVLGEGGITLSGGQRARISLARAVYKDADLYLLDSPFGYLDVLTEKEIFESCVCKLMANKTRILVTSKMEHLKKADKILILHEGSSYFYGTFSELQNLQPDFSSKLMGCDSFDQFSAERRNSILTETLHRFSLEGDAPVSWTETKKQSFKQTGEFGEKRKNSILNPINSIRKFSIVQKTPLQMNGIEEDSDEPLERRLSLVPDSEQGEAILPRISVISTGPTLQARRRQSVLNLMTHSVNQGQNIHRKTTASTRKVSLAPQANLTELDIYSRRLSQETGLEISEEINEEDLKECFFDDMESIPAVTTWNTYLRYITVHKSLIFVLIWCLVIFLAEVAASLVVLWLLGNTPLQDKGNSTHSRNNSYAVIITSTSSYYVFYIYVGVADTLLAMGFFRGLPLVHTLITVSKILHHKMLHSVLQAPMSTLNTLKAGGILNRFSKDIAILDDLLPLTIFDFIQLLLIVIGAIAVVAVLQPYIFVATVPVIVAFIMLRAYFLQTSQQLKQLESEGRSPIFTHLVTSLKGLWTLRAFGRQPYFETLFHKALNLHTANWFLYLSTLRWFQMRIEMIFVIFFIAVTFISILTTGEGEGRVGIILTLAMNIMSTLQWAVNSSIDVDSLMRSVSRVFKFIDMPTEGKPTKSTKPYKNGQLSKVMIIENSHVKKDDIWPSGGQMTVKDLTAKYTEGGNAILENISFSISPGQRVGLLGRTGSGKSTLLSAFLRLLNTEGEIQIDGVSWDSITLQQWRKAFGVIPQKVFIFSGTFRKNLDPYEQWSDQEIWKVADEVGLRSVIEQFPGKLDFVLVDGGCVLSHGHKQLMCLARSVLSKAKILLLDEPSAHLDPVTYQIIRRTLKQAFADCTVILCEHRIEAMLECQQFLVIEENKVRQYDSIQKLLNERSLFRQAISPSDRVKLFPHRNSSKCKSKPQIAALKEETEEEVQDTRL

| EC50 [1] [µM] | Emax [2] [%] | EC50 [3] [µM] | Maximum % activity (with co-corrector) | SMILES |
| --- | --- | --- | --- | --- |
| ≥ 10 | < 50 | ≥ 10 | + (<150) | Cc1ccccc1S(=O)(=O)NC(=O)C1COc2ccc(Cl)cc21 (centres unmarked) [Example 27, 5-chloro-N-(2-methylbenzene-1-sulfonyl)-2,3-dihydro-1-benzofuran-3-carboxamide] |
| 3 to 10 | < 50 | 3 to 10 | ++ (≥150 and <350) | COc1cccc2c1C(C(=O)NS(=O)(=O)c1cccc3cccnc13)CC(C)(C)O2 (centres unmarked) [Example 47, 5-methoxy-2,2-dimethyl-N-(quinoline-8-sulfonyl)-3,4-dihydro-2H-1-benzopyran-4-carboxamide] |
| 3 to 10 | ≥ 150 | < 3 | +++ (≥350) | COc1ccc(Cl)c2c1[C@@H](C(=O)NS(=O)(=O)c1cccc3ccccc13)CO2 (single isomer, unassigned) [Example 67] |
| 3 to 10 | ≥ 150 | 3 to 10 | +++ (≥350) | COc1cccc2c1C(C(=O)NS(=O)(=O)c1cccc3ccccc13)CCO2 (centres unmarked) [Example 9, 5-methoxy-N-(naphthalene-1-sulfonyl)-3,4-dihydro-2H-1-benzopyran-4-carboxamide] |
| 3 to 10 | 50 to 150 | 3 to 10 | +++ (≥350) | COc1ccc(C2CCC2)c2c1[C@@H](C(=O)NS(=O)(=O)c1cccc3c1CCCN3)CO2 [Example 100, (3R)-7-cyclobutyl-4-methoxy-N-(1,2,3,4-tetrahydroquinoline-5-sulfonyl)-2,3-dihydro-1-benzofuran-3-carboxamide] |
| 3 to 10 | ≥ 150 | 3 to 10 | +++ (≥350) | O=C(NS(=O)(=O)c1cccc2ccccc12)C1CCOc2c(Cl)cccc21 (centres unmarked) [Example 7, 8-chloro-N-(naphthalene-1-sulfonyl)-3,4-dihydro-2H-1-benzopyran-4-carboxamide] |
| 3 to 10 | 50 to 150 | 3 to 10 | ++ (≥150 and <350) | COc1ccc(Br)c2c1[C@@H](C(=O)NS(=O)(=O)c1cccc3ccccc13)CO2 (single isomer, unassigned) [Example 73] |
| 3 to 10 | ≥ 150 | < 3 | +++ (≥350) | COc1ccc(C2CCC2)c2c1C(C(=O)NS(=O)(=O)c1cccc3ncccc13)CCO2 (centres unmarked) [Example 54, 8-cyclobutyl-5-methoxy-N-(quinoline-5-sulfonyl)-3,4-dihydro-2H-1-benzopyran-4-carboxamide] |
| ≥ 10 | < 50 | 3 to 10 | + (<150) | Cc1ccccc1S(=O)(=O)NC(=O)C1CCOc2ccccc21 (centres unmarked) [Example 30, N-(2-methylbenzene-1-sulfonyl)-3,4-dihydro-2H-1-benzopyran-4-carboxamide] |
| 3 to 10 | ≥ 150 | 3 to 10 | +++ (≥350) | CCC1(C(=O)NS(=O)(=O)c2cccc3ccccc23)COc2c(C(F)(F)F)cccc21 (centres unmarked) [Example 61, 3-ethyl-N-(naphthalene-1-sulfonyl)-7-(trifluoromethyl)-2,3-dihydro-1-benzofuran-3-carboxamide] |
| 3 to 10 | 50 to 150 | 3 to 10 | ++ (≥150 and <350) | COc1ccc(Br)c2c1[C@@H](C(=O)NS(=O)(=O)c1cccc3cnn(C)c13)CCO2 [Example 69, (4S)-8-bromo-5-methoxy-N-(1-methyl-1H-indazole-7-sulfonyl)-3,4-dihydro-2H-1-benzopyran-4-carboxamide] |
| < 3 | ≥ 150 | < 3 | +++ (≥350) | COc1ccc(C2CCC2)c2c1[C@H](C(=O)NS(=O)(=O)c1cccc3ncccc13)CO2 (single isomer, unassigned) [Example 83] |
| 3 to 10 | < 50 | 3 to 10 | ++ (≥150 and <350) | C[C@@]1(C(=O)NS(=O)(=O)c2cccc3ccccc23)COc2cc3c(cc21)OC(F)(F)O3 [Example 32, (7S)-2,2-difluoro-7-methyl-N-(naphthalene-1-sulfonyl)-6,7-dihydro-2H-furo[2,3-f][1,3]benzodioxole-7-carboxamide] |
| ≥ 10 | < 50 | ≥ 10 | + (<150) | CCCS(=O)(=O)NC(=O)C1COc2ccc(Cl)cc21 (centres unmarked) [Example 28, 5-chloro-N-(propane-1-sulfonyl)-2,3-dihydro-1-benzofuran-3-carboxamide] |
| < 3 | ≥ 150 | < 3 | +++ (≥350) | COc1ccc(C2CCC2)c2c1[C@H](C(=O)NS(=O)(=O)c1cccc3cnn(C)c13)CO2 [Example 95, (3S)-7-cyclobutyl-4-methoxy-N-(1-methyl-1H-indazole-7-sulfonyl)-2,3-dihydro-1-benzofuran-3-carboxamide] |
| 3 to 10 | ≥ 150 | < 3 | +++ (≥350) | COc1ccc(C2CCC2)c2c1C(C(=O)NS(=O)(=O)c1cccn3nccc13)CO2 (centres unmarked) [Example 88, 7-cyclobutyl-4-methoxy-N-(pyrazolo[1,5-a]pyridine-4-sulfonyl)-2,3-dihydro-1-benzofuran-3-carboxamide] |
| 3 to 10 | ≥ 150 | 3 to 10 | +++ (≥350) | COc1ccc(C2CCC2)c2c1[C@@H](C(=O)NS(=O)(=O)c1cccc3nc(C)ccc13)CCO2 [Example 76, (4S)-8-cyclobutyl-5-methoxy-N-(2-methylquinoline-5-sulfonyl)-3,4-dihydro-2H-1-benzopyran-4-carboxamide] |
| 3 to 10 | 50 to 150 | < 3 | +++ (≥350) | COc1ccc(C#N)c2c1C(C(=O)NS(=O)(=O)c1cccc3ccccc13)CC(C)(C)O2 (centres unmarked) [Example 50, 8-cyano-5-methoxy-2,2-dimethyl-N-(naphthalene-1-sulfonyl)-3,4-dihydro-2H-1-benzopyran-4-carboxamide] |
| < 3 | ≥ 150 | < 3 | +++ (≥350) | COc1ccc(Br)c2c1[C@H](C(=O)NS(=O)(=O)c1cccc3ncccc13)CC(C)(C)O2 [Example 72, (4R)-8-bromo-5-methoxy-2,2-dimethyl-N-(quinoline-5-sulfonyl)-3,4-dihydro-2H-1-benzopyran-4-carboxamide] |
| < 3 | ≥ 150 | < 3 | +++ (≥350) | COc1ccc(Br)c2c1[C@H](C(=O)NS(=O)(=O)c1cccc3ccccc13)CCO2 [Example 36, (4R)-8-bromo-5-methoxy-N-(naphthalene-1-sulfonyl)-3,4-dihydro-2H-1-benzopyran-4-carboxamide] |
